Measured values from PubChem BioAssay AID1982 (Sanford-Burnham Center for Chemical Genomics, 2009).
Active and inactive are the calls of the source. The rule behind the calls is not given here.

Legend:
Assay in all cases: kinase panel binding selectivity, selectivity assay, biochemical, KINOMEscan (AID 1982)
MYO3A = details: KINOMEscan 353-kinase binding panel, qPCR, at 10 µM, stronger effect = lower value
CIT = details: KINOMEscan 353-kinase binding panel, qPCR, at 10 µM, stronger effect = lower value
PIP5K1A = details: KINOMEscan 353-kinase binding panel, qPCR, at 10 µM, stronger effect = lower value
[1] = biological target: Misshapen-like kinase 1 (Homo sapiens) (UniProt Q8N4C8); details: KINOMEscan 353-kinase binding panel, qPCR; MINK; at 10 µM; stronger effect = lower value
MEK4 = details: KINOMEscan 353-kinase binding panel, qPCR, at 10 µM, stronger effect = lower value
EPHA4 = details: KINOMEscan 353-kinase binding panel, qPCR, at 10 µM, stronger effect = lower value
[2] = biological target: Tyrosine-protein kinase Fes/Fps (Homo sapiens) (UniProt P07332); details: KINOMEscan 353-kinase binding panel, qPCR, at 10 µM, stronger effect = lower value
[3] = biological target: Casein kinase I isoform gamma-2 (Homo sapiens) (UniProt P78368); details: KINOMEscan 353-kinase binding panel, qPCR; CSNK1G2; at 10 µM; stronger effect = lower value
NEK6 = details: KINOMEscan 353-kinase binding panel, qPCR, at 10 µM, stronger effect = lower value
DAPK2 = details: KINOMEscan 353-kinase binding panel, qPCR, at 10 µM, stronger effect = lower value
[4] = biological target: Ribosomal protein S6 kinase alpha-4 (Homo sapiens) (UniProt O75676); details: KINOMEscan 353-kinase binding panel, qPCR, at 10 µM, stronger effect = lower value
[5] = biological target: Serine/threonine-protein kinase 17A (Homo sapiens) (UniProt Q9UEE5); details: KINOMEscan 353-kinase binding panel, qPCR; DRAK1; at 10 µM; stronger effect = lower value
p38-delta = details: KINOMEscan 353-kinase binding panel, qPCR, at 10 µM, stronger effect = lower value
[6] = biological target: Testis-specific serine/threonine-protein kinase 1 (Homo sapiens) (UniProt Q9BXA7); details: KINOMEscan 353-kinase binding panel, qPCR; TSSK1; at 10 µM; stronger effect = lower value
ANKK1 = details: KINOMEscan 353-kinase binding panel, qPCR, at 10 µM, stronger effect = lower value
AAK1 = details: KINOMEscan 353-kinase binding panel, qPCR, at 10 µM, stronger effect = lower value
NEK1 = details: KINOMEscan 353-kinase binding panel, qPCR, at 10 µM, stronger effect = lower value
GCN2(Kin.Dom.2,S808G) = details: KINOMEscan 353-kinase binding panel, qPCR, at 10 µM, stronger effect = lower value
[7] = biological target: Proto-oncogene tyrosine-protein kinase receptor Ret (Homo sapiens) (UniProt P07949); details: KINOMEscan 353-kinase binding panel, qPCR, at 10 µM, stronger effect = lower value
[8] = biological target: Serine/threonine-protein kinase PAK 1 (Homo sapiens) (UniProt Q13153); details: KINOMEscan 353-kinase binding panel, qPCR; PAK1; at 10 µM; stronger effect = lower value
PAK3 = details: KINOMEscan 353-kinase binding panel, qPCR, at 10 µM, stronger effect = lower value
PKAC-beta = details: KINOMEscan 353-kinase binding panel, qPCR, at 10 µM, stronger effect = lower value
ABL2 = details: KINOMEscan 353-kinase binding panel, qPCR, at 10 µM, stronger effect = lower value
TTK = details: KINOMEscan 353-kinase binding panel, qPCR, at 10 µM, stronger effect = lower value
[9] = biological target: Non-receptor tyrosine-protein kinase TYK2 (Homo sapiens) (UniProt P29597); details: KINOMEscan 353-kinase binding panel, qPCR, at 10 µM, stronger effect = lower value
PFTK1 = details: KINOMEscan 353-kinase binding panel, qPCR, at 10 µM, stronger effect = lower value
[10] = biological target: Fibroblast growth factor receptor 1 (Homo sapiens) (UniProt P11362); details: KINOMEscan 353-kinase binding panel, qPCR; FGFR1; at 10 µM; stronger effect = lower value
LOK = details: KINOMEscan 353-kinase binding panel, qPCR, at 10 µM, stronger effect = lower value
NEK9 = details: KINOMEscan 353-kinase binding panel, qPCR, at 10 µM, stronger effect = lower value
MAP4K3 = details: KINOMEscan 353-kinase binding panel, qPCR, at 10 µM, stronger effect = lower value
SRPK3 = details: KINOMEscan 353-kinase binding panel, qPCR, at 10 µM, stronger effect = lower value
[11] = biological target: Cyclin-dependent kinase 8 (Homo sapiens) (UniProt P49336); details: KINOMEscan 353-kinase binding panel, qPCR; CDK8; at 10 µM; stronger effect = lower value
YSK1 = details: KINOMEscan 353-kinase binding panel, qPCR, at 10 µM, stronger effect = lower value
MEK6 = details: KINOMEscan 353-kinase binding panel, qPCR, at 10 µM, stronger effect = lower value
EPHB2 = details: KINOMEscan 353-kinase binding panel, qPCR, at 10 µM, stronger effect = lower value
[12] = biological target: Aurora kinase B (Homo sapiens) (UniProt Q96GD4); details: KINOMEscan 353-kinase binding panel, qPCR; AURKB; at 10 µM; stronger effect = lower value
[13] = biological target: Serine/threonine-protein kinase MARK2 (Homo sapiens) (UniProt Q7KZI7); details: KINOMEscan 353-kinase binding panel, qPCR, at 10 µM, stronger effect = lower value

Chain of Proto-oncogene tyrosine-protein kinase receptor Ret (Homo sapiens) (P07949 whole entry, looked up): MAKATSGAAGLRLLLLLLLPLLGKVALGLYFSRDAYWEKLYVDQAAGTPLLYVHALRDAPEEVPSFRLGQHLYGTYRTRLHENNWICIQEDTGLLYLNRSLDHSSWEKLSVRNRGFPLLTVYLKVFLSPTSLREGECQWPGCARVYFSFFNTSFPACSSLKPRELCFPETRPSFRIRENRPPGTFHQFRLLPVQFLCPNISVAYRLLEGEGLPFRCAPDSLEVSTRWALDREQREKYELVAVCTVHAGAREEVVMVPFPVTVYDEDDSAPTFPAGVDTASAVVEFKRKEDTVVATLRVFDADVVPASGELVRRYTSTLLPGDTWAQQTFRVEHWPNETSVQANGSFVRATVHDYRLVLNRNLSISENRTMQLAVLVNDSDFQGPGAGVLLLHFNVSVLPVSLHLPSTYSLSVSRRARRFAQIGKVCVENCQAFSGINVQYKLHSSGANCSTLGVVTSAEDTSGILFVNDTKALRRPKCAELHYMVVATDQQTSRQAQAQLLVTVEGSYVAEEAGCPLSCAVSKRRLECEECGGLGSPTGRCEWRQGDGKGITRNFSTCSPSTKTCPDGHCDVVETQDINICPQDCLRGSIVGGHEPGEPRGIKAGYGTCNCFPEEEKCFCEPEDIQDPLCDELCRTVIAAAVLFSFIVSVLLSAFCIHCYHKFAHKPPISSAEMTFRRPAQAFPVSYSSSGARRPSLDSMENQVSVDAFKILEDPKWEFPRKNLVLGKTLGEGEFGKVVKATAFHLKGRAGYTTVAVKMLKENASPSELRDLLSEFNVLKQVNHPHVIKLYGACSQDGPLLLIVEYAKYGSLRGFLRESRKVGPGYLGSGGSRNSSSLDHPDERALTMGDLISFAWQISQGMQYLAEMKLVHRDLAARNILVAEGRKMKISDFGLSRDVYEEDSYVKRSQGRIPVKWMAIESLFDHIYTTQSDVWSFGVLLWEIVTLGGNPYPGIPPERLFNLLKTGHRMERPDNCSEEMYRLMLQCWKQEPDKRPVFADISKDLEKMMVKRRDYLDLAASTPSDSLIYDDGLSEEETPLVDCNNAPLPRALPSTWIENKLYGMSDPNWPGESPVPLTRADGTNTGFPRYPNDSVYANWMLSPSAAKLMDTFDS
Chain of Ribosomal protein S6 kinase alpha-4 (Homo sapiens) (O75676 whole entry, looked up): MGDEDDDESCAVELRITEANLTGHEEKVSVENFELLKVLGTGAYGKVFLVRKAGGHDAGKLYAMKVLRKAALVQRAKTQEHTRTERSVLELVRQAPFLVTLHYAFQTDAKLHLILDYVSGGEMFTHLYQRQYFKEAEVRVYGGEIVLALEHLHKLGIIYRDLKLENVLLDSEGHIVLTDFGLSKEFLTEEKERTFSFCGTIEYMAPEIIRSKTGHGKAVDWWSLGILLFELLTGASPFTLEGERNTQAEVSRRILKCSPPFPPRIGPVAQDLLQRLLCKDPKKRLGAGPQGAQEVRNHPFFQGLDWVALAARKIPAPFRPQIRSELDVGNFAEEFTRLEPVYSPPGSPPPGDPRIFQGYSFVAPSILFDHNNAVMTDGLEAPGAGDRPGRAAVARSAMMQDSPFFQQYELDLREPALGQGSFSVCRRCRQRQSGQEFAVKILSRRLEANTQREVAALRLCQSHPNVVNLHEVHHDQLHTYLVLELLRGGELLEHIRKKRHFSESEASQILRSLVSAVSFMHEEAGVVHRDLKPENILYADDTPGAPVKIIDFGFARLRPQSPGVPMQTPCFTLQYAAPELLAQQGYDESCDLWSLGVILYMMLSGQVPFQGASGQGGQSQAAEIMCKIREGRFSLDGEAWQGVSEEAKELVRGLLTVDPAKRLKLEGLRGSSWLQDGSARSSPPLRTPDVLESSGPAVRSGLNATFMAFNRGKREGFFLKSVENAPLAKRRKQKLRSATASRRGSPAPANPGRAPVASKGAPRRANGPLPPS
Chain of Non-receptor tyrosine-protein kinase TYK2 (Homo sapiens) (P29597 whole entry, looked up): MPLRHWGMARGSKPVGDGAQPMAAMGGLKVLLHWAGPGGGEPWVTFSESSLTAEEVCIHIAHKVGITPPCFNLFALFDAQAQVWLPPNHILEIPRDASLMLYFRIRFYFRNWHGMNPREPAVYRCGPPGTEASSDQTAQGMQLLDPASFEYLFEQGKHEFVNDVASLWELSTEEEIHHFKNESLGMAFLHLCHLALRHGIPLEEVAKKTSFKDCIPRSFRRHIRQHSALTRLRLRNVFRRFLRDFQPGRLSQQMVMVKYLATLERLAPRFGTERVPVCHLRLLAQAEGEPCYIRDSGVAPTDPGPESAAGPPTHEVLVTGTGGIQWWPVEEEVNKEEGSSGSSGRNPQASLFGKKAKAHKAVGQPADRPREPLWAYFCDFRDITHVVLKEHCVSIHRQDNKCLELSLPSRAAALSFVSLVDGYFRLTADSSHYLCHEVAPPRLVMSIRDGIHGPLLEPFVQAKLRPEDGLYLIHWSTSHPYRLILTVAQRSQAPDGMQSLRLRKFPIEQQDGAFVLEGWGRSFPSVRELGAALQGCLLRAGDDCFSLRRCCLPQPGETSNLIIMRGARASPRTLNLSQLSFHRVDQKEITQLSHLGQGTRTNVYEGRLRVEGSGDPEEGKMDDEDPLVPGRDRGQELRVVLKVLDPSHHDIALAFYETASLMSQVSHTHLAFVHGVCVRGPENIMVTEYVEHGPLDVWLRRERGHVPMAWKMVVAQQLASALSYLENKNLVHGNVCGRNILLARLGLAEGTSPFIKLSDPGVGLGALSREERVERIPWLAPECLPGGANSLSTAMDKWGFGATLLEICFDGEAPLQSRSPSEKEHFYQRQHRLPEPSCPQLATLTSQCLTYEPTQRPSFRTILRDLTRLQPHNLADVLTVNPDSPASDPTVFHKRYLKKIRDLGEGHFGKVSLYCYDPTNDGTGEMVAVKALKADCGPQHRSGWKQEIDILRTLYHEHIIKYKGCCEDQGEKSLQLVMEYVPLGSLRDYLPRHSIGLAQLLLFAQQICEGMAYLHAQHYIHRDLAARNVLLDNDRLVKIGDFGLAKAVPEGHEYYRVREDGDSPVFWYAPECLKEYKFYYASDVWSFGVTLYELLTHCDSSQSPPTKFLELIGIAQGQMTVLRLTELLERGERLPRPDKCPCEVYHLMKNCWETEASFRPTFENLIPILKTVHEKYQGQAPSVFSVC
Chain of Fibroblast growth factor receptor 1 (Homo sapiens) (P11362 whole entry, looked up): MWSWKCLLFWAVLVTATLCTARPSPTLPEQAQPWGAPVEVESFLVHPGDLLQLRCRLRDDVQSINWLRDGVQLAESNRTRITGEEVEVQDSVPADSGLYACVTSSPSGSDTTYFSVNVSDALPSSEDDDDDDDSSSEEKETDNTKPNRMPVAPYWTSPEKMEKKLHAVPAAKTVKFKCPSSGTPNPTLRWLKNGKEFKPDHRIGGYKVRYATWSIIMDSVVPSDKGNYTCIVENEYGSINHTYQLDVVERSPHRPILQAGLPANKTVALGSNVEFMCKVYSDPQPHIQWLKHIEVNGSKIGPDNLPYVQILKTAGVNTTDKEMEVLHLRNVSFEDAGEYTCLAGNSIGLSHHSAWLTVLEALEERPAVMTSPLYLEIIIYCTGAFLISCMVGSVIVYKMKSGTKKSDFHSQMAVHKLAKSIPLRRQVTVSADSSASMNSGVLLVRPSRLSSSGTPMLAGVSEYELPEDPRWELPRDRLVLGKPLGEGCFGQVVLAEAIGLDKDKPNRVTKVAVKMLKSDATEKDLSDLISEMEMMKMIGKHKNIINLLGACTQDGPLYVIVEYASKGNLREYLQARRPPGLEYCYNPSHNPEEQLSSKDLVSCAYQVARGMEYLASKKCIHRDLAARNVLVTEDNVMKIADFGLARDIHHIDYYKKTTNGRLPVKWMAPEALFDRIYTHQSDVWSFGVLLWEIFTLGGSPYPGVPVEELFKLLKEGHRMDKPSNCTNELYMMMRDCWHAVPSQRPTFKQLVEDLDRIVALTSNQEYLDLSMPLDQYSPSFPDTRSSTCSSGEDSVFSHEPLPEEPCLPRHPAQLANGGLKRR
Chain of Aurora kinase B (Homo sapiens) (Q96GD4 whole entry, looked up): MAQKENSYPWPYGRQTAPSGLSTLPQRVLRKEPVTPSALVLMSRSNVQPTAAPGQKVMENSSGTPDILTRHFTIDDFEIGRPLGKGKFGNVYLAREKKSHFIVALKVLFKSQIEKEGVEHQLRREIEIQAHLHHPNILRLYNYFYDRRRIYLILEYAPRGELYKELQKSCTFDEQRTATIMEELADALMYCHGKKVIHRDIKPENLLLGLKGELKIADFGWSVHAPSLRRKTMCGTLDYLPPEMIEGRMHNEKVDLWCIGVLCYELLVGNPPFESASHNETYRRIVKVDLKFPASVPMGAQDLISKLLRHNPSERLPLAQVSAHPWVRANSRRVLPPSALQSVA
Chain of Serine/threonine-protein kinase 17A (Homo sapiens) (Q9UEE5 whole entry, looked up): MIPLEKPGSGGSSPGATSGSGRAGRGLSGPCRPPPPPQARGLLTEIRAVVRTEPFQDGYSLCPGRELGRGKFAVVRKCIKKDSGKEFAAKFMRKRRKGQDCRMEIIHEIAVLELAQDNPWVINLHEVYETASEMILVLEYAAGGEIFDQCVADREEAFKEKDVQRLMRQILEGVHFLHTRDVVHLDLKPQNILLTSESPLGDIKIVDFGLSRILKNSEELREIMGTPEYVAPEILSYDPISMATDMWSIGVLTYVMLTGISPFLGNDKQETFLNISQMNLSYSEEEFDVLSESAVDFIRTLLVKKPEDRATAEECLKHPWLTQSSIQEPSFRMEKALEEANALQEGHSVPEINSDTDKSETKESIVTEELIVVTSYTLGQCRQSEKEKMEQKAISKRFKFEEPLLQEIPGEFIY
Chain of Casein kinase I isoform gamma-2 (Homo sapiens) (P78368 whole entry, looked up, canonical isoform): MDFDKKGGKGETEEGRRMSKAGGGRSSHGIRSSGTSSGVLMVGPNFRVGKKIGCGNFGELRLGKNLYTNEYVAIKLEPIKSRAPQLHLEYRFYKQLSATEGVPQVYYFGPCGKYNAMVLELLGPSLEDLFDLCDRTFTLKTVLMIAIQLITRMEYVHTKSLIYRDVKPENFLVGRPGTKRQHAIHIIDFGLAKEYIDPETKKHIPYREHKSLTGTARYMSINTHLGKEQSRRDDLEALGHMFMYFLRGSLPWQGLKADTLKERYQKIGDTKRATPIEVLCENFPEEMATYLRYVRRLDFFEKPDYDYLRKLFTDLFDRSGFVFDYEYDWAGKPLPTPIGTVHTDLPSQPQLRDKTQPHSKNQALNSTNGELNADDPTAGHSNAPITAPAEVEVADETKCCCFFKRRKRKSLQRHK

percent of control binding (MYO3A): 89% (inactive) | percent of control binding (CIT): 100% (inactive) | percent of control binding (PIP5K1A): 77% (inactive) | percent of control binding [1]: 100% (inactive) | percent of control binding (MEK4): 79% (inactive) | percent of control binding (EPHA4): 86% (inactive) | percent of control binding [2]: 99% (inactive) | percent of control binding [3]: 100% (inactive) | percent of control binding (NEK6): 93% (inactive) | percent of control binding (DAPK2): 100% (inactive) | percent of control binding ([4]; RPS6KA4(Kin.Dom.1)): 100% (inactive) | percent of control binding ([4]; RPS6KA4(Kin.Dom.2)): 100% (inactive) | percent of control binding [5]: 89% (inactive) | percent of control binding (p38-delta): 100% (inactive) | percent of control binding [6]: 100% (inactive) | percent of control binding (ANKK1): 100% (inactive) | percent of control binding (AAK1): 100% (inactive) | percent of control binding (NEK1): 91% (inactive) | percent of control binding (GCN2(Kin.Dom.2,S808G)): 95% (inactive) | percent of control binding [7]: 97% (inactive) | percent of control binding ([7]; RET(M918T)): 100% (inactive) | percent of control binding ([7]; RET(V804L)): 100% (inactive) | percent of control binding ([7]; RET(V804M)): 99% (inactive) | percent of control binding [8]: 67% (inactive) | percent of control binding (PAK3): 79% (inactive) | percent of control binding (PKAC-beta): 95% (inactive) | percent of control binding (ABL2): 85% (inactive) | percent of control binding (TTK): 100% (inactive) | percent of control binding ([9]; TYK2 Kin.Dom.1): 84% (inactive) | percent of control binding ([9]; TYK2 Kin.Dom.2): 98% (inactive) | percent of control binding (PFTK1): 88% (inactive) | percent of control binding [10]: 100% (inactive) | percent of control binding (LOK): 95% (inactive) | percent of control binding (NEK9): 100% (inactive) | percent of control binding (MAP4K3): 100% (inactive) | percent of control binding (SRPK3): 87% (inactive) | percent of control binding [11]: 93% (inactive) | percent of control binding (YSK1): 84% (inactive) | percent of control binding (MEK6): 97% (inactive) | percent of control binding (EPHB2): 96% (inactive) | percent of control binding [12]: 100% (inactive) | percent of control binding [13]: 100% (inactive)
Compound: Cc1cc2nc(NCCCO)n(CC(=O)c3cc(C(C)(C)C)c(O)c(C(C)(C)C)c3)c2cc1C
